The test system of data set [1] is NIH3T3-L1 cells expressing the K1-mutant. As to the kind of experiment: proliferation assay (cell counting). Type of data set: cell-based, mouse. The following applies: 1.5 µM LY; most cells. As to the method: (§1) Cells were seeded in equal numbers in 6-well plates the day before addition of LY in order to ensure uniform cell layers at the start of the experiments. Cells were treated in triplicates with daily exchange of medium containing drug or drug-free vehicle. For each time point cells were trypsinized and cell proliferation was assessed using a Z1 Counter (Coulter).

Data set [2] concerns HDF. As to the kind of experiment: proliferation assay (cell counting). Type of data set: cell-based. As to the method: as §1
For data set [3], the system named is p16INK4A-deficient mouse embryo fibroblasts (MEF). As to the kind of experiment: proliferation (data not shown). The note with it: LY. The data set is classed as cell-based. As to the method:
as §1

The subject of another data set is HeLa. As to the kind of experiment: cell death / apoptosis (histone H2B-eGFP chromatin morphology, sub-G1 flow cytometry). The data set is classed as cell-based, human. As to the method:
(§2) Cell samples (both adherent and floating cells) were harvested by trypsinization, washed once with PBS and fixed in 70 % ethanol for > 2 hours on ice, washed once with PBS and incubated for 30 minutes at room temperature in staining solution containing 50 µg/ml of propidium iodide, 0.2 mg/ml of RNase A and 0.1 % (v/v) Triton X-100 in PBS. Quantification of apoptotic cells was performed using the Annexin V-FITC apoptosis detection kit (Becton Dickinson). Samples were analyzed with a FACScan unit (Becton Dickinson). 1×10^4 cells were analyzed for each assay. Quantitation was performed using single histogram statistics.
(§3) For phase contrast and β-gal staining an Axiovert 25 microscope (Zeiss) equipped with a HyperHAD CCD camera (Sony) and ImageBase software (Kappa) was used. In vivo expression of histone-H2B-eGFP was documented with a Photometrics CooISNAP-HQ CCD camera (Roper Scientific) on an inverted Axiovert 200M microscope (Zeiss) using the Metamorph software (Universal Imaging).
(In flow cytometry, cells or beads pass a laser one at a time.)

The subject of a further data set is pRb in HDF. As to the kind of experiment: Western blot analysis, pRb phosphorylation status. Type of data set: cell-based, human. As to the method:
(§4) Cells were lysed in a lysis buffer composed of 50 mM HEPES pH 7.5, 150 mM NaCl, 1 mM EGTA, 10 % glycerol, 1 % Triton X-100, 100 mM NaF, 10 mM Na4P2O7, 1 µM PMSF, and 1 µM Na3VO4. Protein concentration in whole lysates was determined using a Bradford assay (BioRad). 20 µg of lysates diluted with Laemmli-buffer were separated on 12 % SDS-polyacrylamide gels and transferred to Immobilon-P membranes (Millipore). For detection of pRb, separation was performed on a 7-12 % gradient gel. Antibodies against p53 (Pab 1801), p21 (c-19), p16 (c-20) and α-Tubulin (TU-02) were purchased from Santa Cruz Biotechnology. Anti-pRB antibodies (G3-245) were from BD PharMingen. Enhanced chemiluminescence generated by horse radish peroxidase-coupled secondary antibodies was detected with a CF440 imager (Kodak/Perkin Elmer).

Data set [4] deals with HDF. As to the kind of experiment: SA-β-gal staining and morphology. The data set is classed as cell-based, human. The note with it: early passage HDF treated with LY. As to the method:
Cells were fixed by incubation in 0.5 % glutaraldehyde in PBS for 5 minutes at room temperature and stained for SA-ß-galactosidase at pH 6.0 as described by Dimri et al., 1995.
as §3

In data set [5] the test system is cdk-inhibitors p27 and p15. As to the kind of experiment: induction of cdk-inhibitors (data not shown). The data set is classed as cell-based. The note with it: LY-treatment.
In data set [6] the test system is p21 mRNA and protein of p53-/- HCT116. As to the kind of experiment: Northern and Western blot analysis of p21. The data set is classed as cell-based, human. The note with it: 1.5 µM LY. As to the method:
(§5) RNA was isolated using the RNAgents kit (Promega). A Northern probe directed against the 3'-untranslated region of ELF1 α mRNA was generated by PCR using an EST as template and subsequent gel purification. The p21 probe corresponds to the open reading frame of p21. A probe corresponding to the 5'-region of sGC-β3 was amplified from HDF-cDNA and subcloned. Hybridizations were performed in QuickHyb, following the manufacturer's instructions (Stratagene).
as §4
(In western blotting, separated proteins are transferred to a membrane and probed.)

The subject of the next data set is p16INK4A in HDF. As to the kind of experiment: Western blot analysis, p16. The data set is classed as cell-based, human. The following applies: 48 hours of treatment with LY. As to the method: as §4
Data set [7] has as its system NIH3T3-L1 cells expressing wildtype SV40 large T antigen. As to the kind of experiment: proliferation assay, morphology and annexin V staining. Type of data set: cell-based, mouse. The note with it: 1.5 µM LY. As to the method: as §2, §1
The subject of data set [8] is p53-deficient HCT116 cells. As to the kind of experiment: proliferation assay (cell counting). The data set is classed as cell-based, human. The following applies: after LY addition. As to the method: as §1
A further data set deals with MCF7. As to the kind of experiment: proliferation assay (cell counting). The data set is classed as cell-based, human. The following applies: after addition of LY. As to the method: as §1
The test system of another data set is HCT116. As to the kind of experiment: proliferation assay (cell counting). The data set is classed as cell-based, human. As to the method:
as §1

A further data set concerns DLD1. As to the kind of experiment: proliferation assay (cell counting). Type of data set: cell-based, human. The following applies: after addition of LY. As to the method: as §1
The subject of data set [9] is p21-deficient HCT116 colorectal cancer cells. As to the kind of experiment: proliferation assay (cell counting). Type of data set: cell-based, human. As to the method:
as §1

Another data set relates to HEK293. As to the kind of experiment: cell death (data not shown). The data set is classed as cell-based, human. The following applies: treatment with LY, no arrest.
The test system of data set [10] is HDF. As to the kind of experiment: cGMP assay (competitive immunoassay on cell lysates). Type of data set: cell-based. The note with it: Homo sapiens, 1 µM LY, 100 µM SNP for 2 hours, read-out: inhibition of the SNP-induced synthesis of cGMP. As to the method:
Cells of early and late passages were seeded in equal numbers in 6-well plates. 24 hours later SNP (Sigma) was dissolved in complete medium and added to cells to a final concentration of 100 µM. Control cells received the same volume of drug-free medium. After 2 hours of incubation, medium was removed and cells were lysed by addition of 400 µl 0.1 M HCl per well for 10 minutes. cGMP concentration in lysates was determined using a specific competitive immunoassay according to the manufacturer's instructions (Sigma). A plate reader (LAMBDA E, MWG-Biotech) was used to detect the signal at 405 nm. Experiments were performed in triplicates with all samples measured twice.

Data set [11] relates to HDF. As to the kind of experiment: FACS analysis of cell cycle after release from confluence. The data set is classed as cell-based, human. The following applies: HDF synchronized by confluence, released by trypsinization; 1 µM LY, 24 and 36 hours. As to the method:
as §2

Data set [12] deals with soluble guanylate cyclase. The note with it: competitive inhibitor of soluble guanylate cyclase; Fleisch et al., 1984; cited from earlier work.
The test system of data set [13] is p21 protein in HCT116 cells. As to the kind of experiment: Western blot analysis, p21. Type of data set: cell-based, human. As to the method:
as §4

The next data set relates to p53 protein in HDF. As to the kind of experiment: Western blot analysis, p53. Type of data set: cell-based, human. The following applies: after treatment with LY. As to the method: as §4
Data set [14] relates to HDF. As to the kind of experiment: detection of DNA-synthesis (BrdU incorporation). The data set is classed as cell-based, human. The note with it: 1 µM LY; synchronized HDF; 10 µM BrdU for 6 hours. As to the method: Cells were plated on cell locate glass grids (Eppendorf) and labeled for 6 hours using the 5'-bromo-2'-deoxy-uridine labelling and detection kit I (Roche Applied Sciences). After staining with a FITC-labeled anti-BrdU-antibody, positive cells were detected by fluorescence microscopy.

The next data set has as its system p21 mRNA in HDF. As to the kind of experiment: Northern blot analysis of p21 mRNA. The data set is classed as cell-based, human. The note with it: 0.2 µg/ml adriamycin. As to the method: as §5

Molecules are shown by their SMILES.

For the compound `O=C1C(Nc2ccccc2)=CC(=O)c2ncccc21` [LY, 6-Anilino-quinoline-5,8-quinone], the cell proliferation result is given as “inhibition of proliferation” in data set [1]; “inhibited” in [3]; “complete block of proliferation” in data set [8]; “complete cessation of cell proliferation” in the data set on MCF7; “complete cessation of cell proliferation” with HCT116 (after addition of LY); “complete cessation of proliferation” in the data set on HCT116 (wild-type HCT116, after 5 days of LY treatment). For the same compound, the cell proliferation entry with DLD1 is given as “complete cessation of cell proliferation”; in data set [9] (after 5 days of LY treatment), “regained exponential proliferation”. Also, the inhibition at 0.25 µM with HDF [2] (Homo sapiens, HDF, 72 h, read-out: reduction in proliferation) stood at 50%. Further, in the data set with HDF [2] (early passage fibroblasts, 1 µM LY), the inhibition of proliferation result is “completely inhibit proliferation”. For the same compound, the “proliferation after extended treatment” value in the data set on HDF [2] (treatment for 8 days) is given as “stable inhibition of proliferation”. Also, the “toxicity after extended treatment” value with HDF [2] (treatment for 8 days) is listed as “did not cause any obvious toxicity”. Besides, the “reversibility of inhibition of proliferation” value in the data set with HDF [2] (treatment period of more than 2 days, 1 µM LY) is “irreversible”. Also, the chromatin morphology entry in the data set on HeLa (HeLa expressing histone H2B-eGFP, 2 µM LY for 48 hours) is given as “chromatin condensation”. Also, the “cells with a sub-G1 DNA content” value in the data set with HeLa (HeLa treated for 60 hours with LY, flow-cytometry) is reported as “substantial increase of cells with a sub-G1 DNA content”. Also, the cell fate entry was “underwent cell death” with HeLa (treatment with LY, no arrest, data not shown); “underwent apoptosis” in [7]; “underwent cell death” in the data set on HEK293. For the same compound, the “ratio of phosphorylated to hypo-phosphorylated pRb” value in the data set on pRb in HDF (6 hours after addition of LY) was “clearly shifted towards the hypo-phosphorylated form”. Further, the pRb phosphorylation status entry in the data set on pRb in HDF (19 hours after addition of LY) is “almost completely hypo-phosphorylated”. The “signs of senescence (morphology, SA-β-galactosidase)” value in the data set with HDF [4] is “morphological changes characteristic of senescence and by SA-β-galactosidase staining at pH 6”. Also, in data set [5], the “induction of p27 and p15” value was “did not lead to induction”. In addition, the “levels of p21 mRNA and protein” value in data set [6] is recorded as “induced with kinetics similar to those observed in HDF”. For the same compound, in the data set on p16INK4A in HDF, the “induction of p16INK4A” value is reported as “not induced”. For the same compound, the cell-cycle inhibition result in data set [9] (LY vs vehicle (DMSO)) was “resistant to cell-cycle inhibition”. In the data set on HDF [10], the inhibition at 1 µM was found to be 60%. Also, the “entry into S-phase” value with HDF [11] is reported as “almost completely blocked the entry into S-phase”. The IC50 in data set [12] was 2000 nM. Besides, in [13] (1.5 µM LY), the p21 protein entry is on record as “induction of p21”. For the same compound, the “level of p53 protein” value in the data set with p53 protein in HDF is given as “did not increase”. Also, the “DNA synthesis as determined by BrdU incorporation” value in the data set with HDF [14] is given as “complete inhibition of DNA synthesis”.
`COc1cccc2c1C(=O)c1c(O)c3c(c(O)c1C2=O)C[C@@](O)(C(=O)CO)C[C@@H]3O[C@H]1C[C@H](N)[C@H](O)[C@H](C)O1` [adriamycin]: the “p21 mRNA” value with p21 mRNA in HDF was “induction of p21 mRNA”. Moreover, in [13] (wildtype HCT116 only, adriamycin at 0.2 µg/ml for 8 hours), the p21 protein result was “induction of p21 protein”.

By IC50 is commonly meant the midpoint of a concentration-inhibition curve.

The record behind these values is patent EP1398031A1, “Use of 6-amino-quinoline-5,8-quinones and nucleic acids associated with senescence for the treatment of tumors” (Max-Planck-Gesellschaft zur Förderung der Wissenschaften …, priority 2002, dated 2004).
